What all share (test): Radioligand Binding Assay
The target in one assay is T1, Adenosine receptor A1 (Homo sapiens, UniProt P30542).
T1 sequence (P30542 whole entry): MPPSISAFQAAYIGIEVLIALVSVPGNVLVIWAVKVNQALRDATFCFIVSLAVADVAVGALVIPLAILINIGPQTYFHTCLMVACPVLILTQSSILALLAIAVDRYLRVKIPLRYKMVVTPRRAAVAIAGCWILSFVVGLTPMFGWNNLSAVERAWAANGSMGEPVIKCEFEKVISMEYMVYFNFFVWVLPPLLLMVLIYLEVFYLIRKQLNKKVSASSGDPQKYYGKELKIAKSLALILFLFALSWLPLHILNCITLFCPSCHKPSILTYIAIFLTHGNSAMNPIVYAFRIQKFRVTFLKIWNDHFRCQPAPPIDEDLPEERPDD
Here is the method: (§1) Nonspecific binding was determined using adenosine-′-Nethyluronamideat 10 μM concentration.

In a further assay the target is Adenosine receptor A2a (Homo sapiens, UniProt P29274). As to the method: as §1
Sequence of Adenosine receptor A2a (P29274 whole entry): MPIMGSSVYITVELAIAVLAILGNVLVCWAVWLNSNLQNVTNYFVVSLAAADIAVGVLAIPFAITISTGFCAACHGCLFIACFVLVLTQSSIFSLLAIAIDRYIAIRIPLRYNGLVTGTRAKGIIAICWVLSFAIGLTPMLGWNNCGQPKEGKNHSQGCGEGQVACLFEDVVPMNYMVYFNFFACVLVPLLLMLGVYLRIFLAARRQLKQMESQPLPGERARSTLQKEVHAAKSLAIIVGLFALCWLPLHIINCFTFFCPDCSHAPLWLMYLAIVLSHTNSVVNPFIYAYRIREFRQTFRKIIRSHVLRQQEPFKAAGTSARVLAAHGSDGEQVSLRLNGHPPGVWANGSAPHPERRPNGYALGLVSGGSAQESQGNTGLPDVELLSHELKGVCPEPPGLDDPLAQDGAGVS
The next assay addresses T2, Adenosine receptor A3 (Homo sapiens, UniProt P0DMS8).
T2 sequence (P0DMS8 whole entry): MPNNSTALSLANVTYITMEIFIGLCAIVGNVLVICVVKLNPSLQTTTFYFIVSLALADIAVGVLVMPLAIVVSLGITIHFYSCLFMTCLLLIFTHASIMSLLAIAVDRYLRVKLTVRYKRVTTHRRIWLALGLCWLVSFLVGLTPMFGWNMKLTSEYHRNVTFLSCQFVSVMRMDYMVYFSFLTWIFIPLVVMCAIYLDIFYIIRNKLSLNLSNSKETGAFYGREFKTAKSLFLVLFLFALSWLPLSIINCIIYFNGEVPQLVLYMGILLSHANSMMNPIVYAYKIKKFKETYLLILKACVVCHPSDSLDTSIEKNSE
Here is the method:
as §1

As a reminder, the Ki is the dissociation constant of the complex between target and ligand, obtained from inhibition or displacement. `Nc1ccnc2c1ncn2[C@@H]1O[C@H](CO)[C@@H](O)[C@H]1O` [1-DEAZA-ADENOSINE]: the Ki at Adenosine receptor A1 was determined as 84 nM; on Adenosine receptor A2a it was 645 nM; at Adenosine receptor A3 it was 583 nM. With `Nc1cccc2c1ncn2[C@@H]1O[C@H](CO)[C@@H](O)[C@H]1O` [Adenosine receptor agonist, 7], the affinity on Adenosine receptor A3, expressed as Ki, was 823 nM. As to `Nc1nc(=O)[nH]c2c1ncn2[C@@H]1O[C@H](CO)[C@@H](O)[C@H]1O` [Adenosine receptor agonist, 9], the values for the Ki on Adenosine receptor A1, at Adenosine receptor A2a and on Adenosine receptor A3 were 467 nM, 495 nM and 348 nM, respectively. At Adenosine receptor A3, `Cc1cn([C@@H]2O[C@H](CO)[C@@H](O)[C@H]2O)c(=O)nc1N` [Adenosine receptor agonist, 13] yielded a Ki of 8020 nM. On to `Nc1ncn([C@@H]2O[C@H](CO)[C@@H](O)[C@H]2O)c(=O)c1Cl` [Adenosine receptor agonist, 14], for which the Ki amounted to 359 nM on Adenosine receptor A1 and 557 nM at Adenosine receptor A3. `Nc1nccc2c1ncn2[C@@H]1O[C@H](CO)[C@@H](O)[C@H]1O` [CAS_6736-58-9] registered a Ki at Adenosine receptor A1 of 461 nM.

The values are drawn from BindingDB's records for doi:10.1021/acschembio.6b00357 (Uppsala University, 2016).
